The results in this text go back to patent US20050238593A1, “Compositions containing dolichol for dermatological and cosmetic use” (priority 2002, published 2005).

Data set [1] concerns isolated hepatocytes treated with carbon tetrachloride. Description: Peroxidative degradation of dolichol and TBARS formation in hepatocytes treated with CCl4. The class given is cell-based. To be noted: Vitamin E administered. An excerpt:
(§1) After irradiation, dolichol undergoes transformations in the most dangerous spectral region (UVB), depending on the dose of radiation applied; it absorbs UV radiation and, if irradiated with UVC rays, instantly acquires an absorption capacity in the UVB region. […] The phenomenon is very weak in the case of irradiation with monochromatic light at 310 nm, more intense with irradiation at 280 nm, and greatest with white light irradiation, namely with the entire emission spectrum of the xenon lamp. […] The photodecomposition products of dolichol have not yet been identified but, by analogy with the findings made with peroxidative degradation of dolichol in isolated hepatocytes treated with carbon tetrachloride, it can be concluded that in biological systems, the degradation cascade leads to the formation of thiobarbituric acid reactive substances (TBARS), which are readily metabolised and detoxified by the body in the event of resorption. […] As regards absorption, it should be borne in mind that dolichol is a normal constituent of all cell membranes, in which it is synthesised and remains until breakdown, without being resorbed into the bloodstream or being transferable to other tissues.

Data set [2] is described as follows: In vivo photoprotection tests using dolichol. To be noted: dolichol approx. 1 mg/cm2, in vivo.
The nature of data set [3]: Study of anti UV-B activity: UV photo-irradiation of dolichol, absorbance change. The class given is physicochemical.
From the text: as §1

Take Vitamin E: in data set [1], the “degradation of dolichol and formation of TBARS” value was “prevented”.

As for dolichol, the “(photo)sensitising effects” value in data set [2] is reported as “does not have cell-damaging effects or (photo)sensitising effects”. Besides, the cell-damaging effects result in data set [2] is on record as “does not have cell-damaging effects”. For the same substance, the “photostability under UV photo-irradiation” value in data set [3] (UV photo-irradiation in an oxygen atmosphere) was “apparent breakdown, accompanied by disappearance of UVC absorption capacity”. The “increase in absorbance at 250 nm” value in data set [3] (irradiated with UVC rays) is reported as “more modest increases”. Besides, the “increase in absorbance at 320 nm” value in data set [3] (irradiated with UVC rays, in one minute) stood at 430%; in data set [3] (irradiated with UVC rays, in two minutes) it was 580%. Further, the “acquisition of UVB absorption (the phenomenon)” value is given as “more intense” in data set [3] (irradiation at 280 nm); “very weak” in data set [3] (irradiation with monochromatic light at 310 nm); “greatest” in data set [3] (white light irradiation, entire emission spectrum of the xenon lamp).
